20 compounds from patent US11208423B2, “Pyridinamine-pyridone and pyrimidinamine- pyridone compounds” (Sprint Bioscience AB, priority 2017, dated 2021) can be followed below.

Structures are written as SMILES.

One may read the IC50 as the concentration at which inhibition is half-maximal.

The target of test [1] is Vps34 enzyme (Homo sapiens (Human), UniProt Q8NEB9). As to the kind of experiment: Vps34 Biochemical Assay (Adapta kinase assay). The following applies: 20 μM ATP / 200 μM PI:PS substrate mix, 1 h at room temperature, TR-FRET, read-out: Median IC50 nM Adapta. The method, then:
Dilution series of compounds of the invention were prepared in DMSO at 100 times the final assay concentration (n1=n0/3 in 10 points). The compounds were further diluted to 4 times the assay concentration in assay buffer (Life technologies buffer Q, PV5125, diluted 5 times supplemented with 2 mM DTT and 2 mM MnCl2). 2.5 μl of the diluted compounds were added to a 384 well assay plate followed by 2.5 μl of 16.5 nM Vps34 enzyme (Life technologies, PV5126). Enzyme and compounds were pre-incubated at rt for 15 min. Then 5 μl of substrate mix containing 20 μM ATP (Life technologies, PV3227) and 200 μM PI:PS substrate (Life technologies, PV5122) in assay buffer was added to the wells containing compound and enzyme. Mixing was performed by pipetting several times. The reaction was incubated at room temperature for 1 h. Then 5 μl stop-detection mix, prepared as described in the Adapta kinase assay kit instructions (Life technologies, PV5099) containing Adapta Eu-anti-ADP antibody (2.3 nM), Alexa Fluor 647 ADP tracer (9 nM) and EDTA (30 mM) in TR-FRET buffer, was added to quench the reaction. Mixing was performed by pipetting several times. The assay plate was then incubated at room temperature for 30 min and read with Artemis micro plate reader. Percent inhibition of the compounds as compared to DMSO treated control samples was calculated. By the use of Dotmatics software compound concentration versus percent inhibition was fitted to generate IC50 values.
(Time-resolved FRET reads energy transfer from a long-lived donor to a nearby acceptor.)

In test [2] the test system is autophagy in HOS cells (GFP-LC3). As to the kind of experiment: High Content Screening Autophagy Assay (GFP-LC3 foci). The class given is cell-based. The following applies: Homo sapiens; HOS cells expressing GFP-LC3; autophagy activated with KU-0063794 500 nM plus Bafilomycin A1 5 nM; 6 hours; foci area per cell; read-out: Median IC50 (μM) Cellular assay. On the procedure:
High Content Screening Autophagy Assay
Human osteosarcoma cells (HOS) stably expressing a Green Fluorescent Protein (GFP) tagged LC3 (GFP-LC3) were used to determine the inhibitory effect on autophagy of proprietary compounds. For that purpose, autophagy was activated by using the mTOR inhibitor KU-0063794 at 500 nM in the presence of Bafilomycin A1 (Sigma-Aldrich) at 5 nM. Shortly, cells were plated overnight in clear bottom 96-well plates in DMEM—High Modified media (Hi-Clone Cat #SH30285.01). At the start of the experiment, the media was removed and replaced with fresh media containing the mTOR inhibitor, Bafilomycin A1 and the vehicle or a test compound as indicated. After 6 hours the media was removed, cells were washed twice with ice-cold phosphate buffered saline (PBS) and fixed with 4% paraformaldehyde for 20 minutes at room temperature. Then the cells were washed twice with ice-cold PBS before adding Hoechst 33342 at 1 μg/ml in PBS for nuclear staining. After incubation overnight at 4° C., cells were washed once with PBS to remove the excess of dye and 100 μl of PBS was added to each well. Images were acquired at 20× magnification, 6 images per well, using the ImageXpress automated microscope (Molecular Devices Inc.) and analyzed with MetaXpress software to identify LC3-GFP foci. Foci area per cell values were used to generate dose response curves and IC50 values were calculated using the non-linear fitting analysis in GraphPad Prism software.
The results of the assay are shown in Table 2 (Median IC50 μM HOS-LC3).

Vps34 enzyme, sequence (Q8NEB9 whole entry): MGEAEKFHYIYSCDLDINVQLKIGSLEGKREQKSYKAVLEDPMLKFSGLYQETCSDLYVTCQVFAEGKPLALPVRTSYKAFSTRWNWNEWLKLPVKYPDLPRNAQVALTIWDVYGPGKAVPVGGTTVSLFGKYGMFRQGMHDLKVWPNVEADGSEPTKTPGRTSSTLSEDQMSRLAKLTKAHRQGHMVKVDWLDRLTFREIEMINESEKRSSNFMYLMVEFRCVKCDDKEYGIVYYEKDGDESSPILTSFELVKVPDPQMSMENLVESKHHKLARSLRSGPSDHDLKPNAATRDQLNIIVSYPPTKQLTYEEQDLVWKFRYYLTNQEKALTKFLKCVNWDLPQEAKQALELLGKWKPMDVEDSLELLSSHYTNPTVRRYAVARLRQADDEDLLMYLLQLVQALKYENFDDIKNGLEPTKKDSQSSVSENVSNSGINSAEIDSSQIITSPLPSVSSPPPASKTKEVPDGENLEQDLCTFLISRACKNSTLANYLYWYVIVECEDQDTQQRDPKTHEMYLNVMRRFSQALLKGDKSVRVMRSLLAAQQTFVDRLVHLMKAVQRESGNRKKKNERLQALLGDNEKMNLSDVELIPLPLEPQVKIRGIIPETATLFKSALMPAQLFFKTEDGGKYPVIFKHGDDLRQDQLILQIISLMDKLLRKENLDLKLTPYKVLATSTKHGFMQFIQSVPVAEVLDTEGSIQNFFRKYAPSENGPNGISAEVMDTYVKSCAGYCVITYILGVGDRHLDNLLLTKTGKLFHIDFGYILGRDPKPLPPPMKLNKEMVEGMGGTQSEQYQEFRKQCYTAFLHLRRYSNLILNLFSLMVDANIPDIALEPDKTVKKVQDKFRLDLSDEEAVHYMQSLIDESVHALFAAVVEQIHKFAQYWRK

On to `Cn1cnc(Nc2cc(-c3cc(-c4ccccc4C(F)(F)F)[nH]c(=O)c3)ccn2)c1` [Example 62, 4-[2-[(1-Methylimidazol-4-yl)amino]-4-pyridyl]-6-[2-(trifluoromethyl)phenyl]-1H-pyridin-2-one], for which, in test [1], the IC50 was 12 nM.

In the case of `O=c1cc(-c2ccnc(Nc3ncco3)c2)cc(N2CCOCC2C(F)(F)F)[nH]1` (stereo not drawn) [Example 40, 4-[2-(Oxazol-2-ylamino)-4-pyridyl]-6-[3-(trifluoromethyl)morpholin-4-yl]-1H-pyridin-2-one], the values for the IC50 in test [1] and in test [2] were less than 5 nM and 0.029 µM, respectively.

Turning to `Cc1nc(Nc2cc(-c3cc(-c4ccccc4C(F)(F)F)[nH]c(=O)c3)ccn2)cs1` [Example 52, 4-[2-[(2-Methylthiazol-4-yl)amino]-4-pyridyl]-6-[2-(trifluoromethyl)phenyl]-1H-pyridin-2-one], the IC50 in test [1] was 52 nM.

`O=c1cc(-c2ccnc(Nc3ccccc3)n2)cc(N2CCOCC2C(F)(F)F)[nH]1` (stereo not drawn) [Example 27, 4-(2-Anilinopyrimidin-4-yl)-6-[3-(trifluoromethyl)morpholin-4-yl]-1H-pyridin-2-one]: the IC50 in test [1] was less than 5 nM; in test [2], 0.02 µM.

`Cc1nccc(Nc2cc(-c3cc(N4CCOCC4C(F)(F)F)[nH]c(=O)c3)ccn2)n1` (stereo not drawn) [Example 26, 4-[2-[(2-Methylpyrimidin-4-yl)amino]-4-pyridyl]-6-[3-(trifluoromethyl)morpholin-4-yl]-1H-pyridin-2-one]: the IC50 in test [1] is less than 5 nM; in test [2], 0.01 µM.

On to `Cc1nccc(Nc2cc(-c3cc(-c4ccccc4Cl)[nH]c(=O)c3)ccn2)n1` [Example 66, 6-(2-Chlorophenyl)-4-[2-[(2-methylpyrimidin-4-yl)amino]-4-pyridyl]-1H-pyridin-2-one], for which the IC50 in test [1] is less than 5 nM.

`O=c1cc(-c2ccnc(Nc3ccccc3)n2)cc(-c2cccnc2)[nH]1` [Example 6, 4-(2-Anilinopyrimidin-4-yl)-6-(3-pyridyl)-1H-pyridin-2-one]: the IC50 is less than 5 nM in test [1] and 0.054 µM in test [2].

For `Cc1nccc(Nc2cc(-c3cc(N4CCN(S(=O)(=O)Cc5ccc(F)cc5)CC4C(F)(F)F)[nH]c(=O)c3)ccn2)n1` (stereo not drawn) [Example 33, 6-[4-[(4-Fluorophenyl)methylsulfonyl]-2-(trifluoromethyl)piperazin-1-yl]-4-[2-[(2-methylpyrimidin-4-yl)amino]-4-pyridyl]-1H-pyridin-2-one], the IC50 in test [1] was less than 5 nM; in test [2] it was 0.003 µM.

For the compound `Cc1nccc(Nc2cc(-c3cc(N4CCCCC4C(F)(F)F)[nH]c(=O)c3)ccn2)n1` (stereo not drawn) [Example 18, 4-[2-[(2-Methylpyrimidin-4-yl)amino]-4-pyridyl]-6-[2-(trifluoromethyl)-1-piperidyl]-1H-pyridin-2-one], the IC50 in test [1] was less than 5 nM.

On to `Cn1nccc1Nc1cc(-c2cc(-c3ccccc3C(F)(F)F)[nH]c(=O)c2)ccn1` [Example 50, 4-[2-[(2-Methylpyrazol-3-yl)amino]-4-pyridyl]-6-[2-(trifluoromethyl)phenyl]-1H-pyridin-2-one], for which the IC50 in test [1] amounted to 55 nM; in test [2], 0.254 µM.

Take `O=c1cc(-c2ccnc(Nc3ccccc3)n2)cc(N2CCOCC2)[nH]1` [Example 10, 4-(2-anilinopyrimidin-4-yl)-6-morpholino-1H-pyridin-2-one]: the IC50 is less than 5 nM in test [1] and 0.019 µM in test [2].

`Cc1nccc(Nc2cc(-c3cc(-c4cccnc4C(F)(F)F)[nH]c(=O)c3)ccn2)n1` [Example 57, 4-[2-[(2-Methylpyrimidin-4-yl)amino]-4-pyridyl]-6-[2-(trifluoromethyl)-3-pyridyl]-1H-pyridin-2-one]: the IC50 is less than 5 nM in test [1] and 0.006 µM in test [2].

Take `Cc1nccc(Nc2cc(-c3cc(-c4ccccc4C(F)(F)F)[nH]c(=O)c3)ccn2)n1` [Example 47, 4-[2-[(2-Methylpyrimidin-4-yl)amino]-4-pyridyl]-6-[2-(trifluoromethyl)phenyl]-1H-pyridin-2-one]: the IC50 in test [1] was less than 5 nM; in test [2], 0.003 µM.

Regarding `Cc1nc(Nc2cc(-c3cc(N4CCOCC4C(F)(F)F)[nH]c(=O)c3)ccn2)cs1` (stereo not drawn) [Example 42, 4-[2-[(2-Methylthiazol-4-yl)amino]-4-pyridyl]-6-[3-(trifluoromethyl)morpholin-4-yl]-1H-pyridin-2-one], the IC50 in test [1] was determined as 13 nM.

For `CCS(=O)(=O)N1CCN(c2cc(-c3ccnc(Nc4ccnc(C)n4)c3)cc(=O)[nH]2)C(C(F)(F)F)C1` (stereo not drawn) [Example 39, 6-[4-Ethylsulfonyl-2-(trifluoromethyl)piperazin-1-yl]-4-[2-[(2-methylpyrimidin-4-yl)amino]-4-pyridyl]-1H-pyridin-2-one], the values for the IC50 in test [1] and in test [2] were less than 5 nM and 0.002 µM, respectively.

In the case of `O=c1cc(-c2ccnc(Nc3ccccc3)n2)cc(-c2ccccc2Cl)[nH]1` [Example 4, 4-(2-anilinopyrimidin-4-yl)-6-(2-chlorophenyl)-1H-pyridin-2-one], in test [1], the IC50 is less than 5 nM.

As to `O=c1cc(-c2ccnc(Nc3ccccc3)n2)cc(N2CCCCC2C(F)(F)F)[nH]1` (stereo not drawn) [Example 21, 4-(2-Anilinopyrimidin-4-yl)-6-[2-(trifluoromethyl)-1-piperidyl]-1H-pyridin-2-one], in test [1], the IC50 was less than 5 nM.

Consider `O=c1cc(-c2ccnc(Nc3ccccc3)n2)cc(-c2ccncc2)[nH]1` [Example 8, 4-(2-Anilinopyrimidin-4-yl)-6-(4-pyridyl)-1H-pyridin-2-one], for which the IC50 in test [1] is 6 nM; in test [2], 0.066 µM.

For `CCn1cc(-c2cc(-c3ccnc(Nc4ccnc(C)n4)c3)cc(=O)[nH]2)c(C(F)(F)F)n1` [Example 59, 6-[1-Ethyl-3-(trifluoromethyl)pyrazol-4-yl]-4-[2-[(2-methylpyrimidin-4-yl)amino]-4-pyridyl]-1H-pyridin-2-one], the values for the IC50 in test [1] and in test [2] were less than 5 nM and 0.005 µM, respectively.

For the compound `Cc1nccc(Nc2cc(-c3cc(-c4cnccc4C)[nH]c(=O)c3)ccn2)n1` [Example 55, 6-(4-Methyl-3-pyridyl)-4-[2-[(2-methylpyrimidin-4-yl)amino]-4-pyridyl]-1H-pyridin-2-one], the half-inhibitory concentration (IC50) in test [1] was less than 5 nM; in test [2], 0.099 µM.
